Measured values as given in patent US12351586B2 (priority 2020, dated 2025).
pEC50: −log10 of the molar value.

Legend:
[1] = system: WT HIV-1 strain (IIIB); assay: Anti-HIV activity in MT-4 cells, MTT method, WT HIV-1 strain (IIIB); format: cell-based
Text: Etravirine (ETR) was selected as control drug.
Pannecouque et al. Nat. Protoc. […] Methods 20(1988) 309-321.

[2] = system: HIV-1 K103N mutant strain; assay: Anti-HIV activity in MT-4 cells, MTT method, K103N mutant strain; format: cell-based; details: Human immunodeficiency virus 1, MT4, read-out: EC50 (anti-HIV activity)
Text: Pannecouque et al. Nat. Protoc.

[3] = system: HIV-1 L100I mutant strain; assay: microbe, parasite or virus in culture; details: Human immunodeficiency virus 1, MT4, read-out: EC50 (anti-HIV activity)
[4] = system: HIV-1 E138K mutant strain; assay: microbe, parasite or virus in culture; details: Human immunodeficiency virus 1, MT4, read-out: EC50 (anti-HIV activity)
[5] = system: HIV-1 mutant strains (K101E, V108I, F227C, M230I in RT gene); assay: Activity against mutant strains selected by passaging HIV-1 IIIB 30 times in the presence of DK6-1; format: cell-based

Compound	pEC50 ([1]; Human immunodeficiency virus 1, MT4, HIV-1 IIIB wild-type)	pEC50 [2]	pEC50 [3]	pEC50 [4]	pEC50 ([1]; HIV-1 IIIB wild-type)	pEC50 ([5]; mutant strains with K101E, V108I, F227C, M230I)	fold potent versus own activity against HIV-1 IIIB ([5]; selected mutant strains vs HIV-1 IIIB)
Cc1cc(/C=C/C#N)cc(C)c1Oc1nc(NC2CCN(Cc3ccc(S(N)(=O)=O)cc3)CC2)nc2sccc12 [DK6-1]	8.49	8.63	> 8.10	> 8.10	–	–	–
Cc1cn([C@H]2C[C@H](N=[N+]=[N-])[C@@H](CO)O2)c(=O)[nH]c1=O [AZT]	–	–	–	–	7.90	9.00	about 10 fold
